Calls of active or inactive are those of the source. The rule behind the calls is not given here.

For one test, the target named is T1, Solute carrier family 2, facilitated glucose transporter member 4 (Rattus norvegicus) (UniProt P19357).
T1 sequence (whole entry): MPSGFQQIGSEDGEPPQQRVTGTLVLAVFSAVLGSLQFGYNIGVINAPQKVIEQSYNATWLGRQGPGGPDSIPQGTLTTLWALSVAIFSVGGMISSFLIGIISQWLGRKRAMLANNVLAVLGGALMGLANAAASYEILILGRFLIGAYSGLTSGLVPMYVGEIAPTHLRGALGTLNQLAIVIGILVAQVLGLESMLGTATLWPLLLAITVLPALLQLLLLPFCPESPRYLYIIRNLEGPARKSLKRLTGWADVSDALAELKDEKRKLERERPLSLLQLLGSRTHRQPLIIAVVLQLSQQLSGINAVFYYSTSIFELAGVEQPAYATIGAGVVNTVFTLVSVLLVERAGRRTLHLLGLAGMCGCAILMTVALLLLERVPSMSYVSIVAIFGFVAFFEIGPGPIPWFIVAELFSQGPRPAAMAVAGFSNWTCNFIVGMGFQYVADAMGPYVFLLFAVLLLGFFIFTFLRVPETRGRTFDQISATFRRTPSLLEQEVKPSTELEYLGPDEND
Briefly: Enhancement of GLUT4 translocation at plasma membrane of rat L6 cells expressing pIRAP-mOrange after 30 mins by laser-scanning confocal microscopic method.
Turning to `CC(C)=CCc1cc([C@@H]2CC(=O)c3ccc(O)c(CC=C(C)C)c3O2)cc(CC=C(C)C)c1O`, the Activity result was “Dose-dependent effect”.

Another test has as its target T1, Solute carrier family 2, facilitated glucose transporter member 4 (Rattus norvegicus). Briefly: Enhancement of GLUT4 translocation at plasma membrane of rat L6 cells expressing pIRAP-mOrange at […] after 30 mins by laser-scanning confocal microscopic method relative to control.
For the compound `CC(C)=CCc1cc([C@@H]2CC(=O)c3ccc(O)c(CC=C(C)C)c3O2)cc(CC=C(C)C)c1O`, the fold change (FC) amounted to 2.7.

The next test has the same target. Briefly: Enhancement of GLUT4 translocation at plasma membrane of rat L6 cells expressing pIRAP-mOrange at 10 uM after 30 mins by fluorescence assay relative to control.
As for `CC(C)=CCc1c2c(cc3c1O[C@H](c1ccc(O)cc1O)CC3=O)C=CC(C)(C)O2`, the fold change (FC) is 1.35 to 2.75.

As to `CC(C)=CCc1cc([C@@H]2CC(=O)c3ccc(O)c(CC=C(C)C)c3O2)cc2c1OC(C)(C)C=C2`, the fold change (FC) was 1.35 to 2.75.

On to `O=c1c(O)c(-c2ccc(O)c(O)c2)oc2cc(O)cc(O)c12`, for which the outcome was inactive.

As to `CC(C)=CCc1cc2c(c(CC=C(C)C)c1O)O[C@H](c1ccc(O)cc1)CC2=O`, the fold change (FC) is 1.35 to 2.75.

Consider `Oc1ccc2c(c1)OC[C@H]1c3cc4c(cc3O[C@@H]21)OCO4`, for which the result was inactive.

Turning to `CC(=O)OC[C@H]1O[C@@H](Oc2ccc3c(c2)OC[C@H]2c4cc5c(cc4O[C@@H]32)OCO5)[C@H](O)[C@@H](O)[C@@H]1O`, the result was inactive.

For the compound `CC(C)=CCc1cc([C@@H]2CC(=O)c3ccc(O)c(CC=C(C)C)c3O2)ccc1O`, the fold change (FC) fell in the range of 1.35 to 2.75.

On to `CC(C)=CCc1cc([C@@H]2CC(=O)c3ccc(O)c(CC=C(C)C)c3O2)cc(CC=C(C)C)c1O`, for which the fold change (FC) is 2.75.

Consider `CC(C)=CCc1c(O)cc(O)c2c1OC[C@H]1c3cc4c(cc3O[C@@H]21)OCO4`, for which the fold change (FC) was 0.79.

Regarding `OC[C@H]1O[C@@H](Oc2ccc3c(c2)OC[C@H]2c4cc5c(cc4O[C@@H]32)OCO5)[C@H](O)[C@@H](O)[C@@H]1O`, the result was inactive.

On to `COc1ccc2c(c1)O[C@H]1c3ccc(O)cc3OC[C@@H]21`, for which the outcome was inactive.

With `CC(C)=CCc1c(O)c(CC=C(C)C)c2oc(-c3ccc(O)cc3)c(O)c(=O)c2c1O`, the fold change (FC) lay in the range of 1.35 to 2.75.

Values taken from ChEMBL document CHEMBL3997838, “Chemical constituents from Sophora tonkinensis and their glucose transporter 4 translocation activities” (Bioorg Med Chem Lett, 2017).
